# Reference: patent publication US12447159B2 (AELIS FARMA, priority 2018, dated 2025)
# Like-named read-outs stand apart in the source and are kept apart here.
# What was measured:
# CYP 2C9 = CYP 2C9 (Homo sapiens, UniProt P11712); test: CYP inhibition in human liver microsomes; conditions: 10 μM
# Description: (§1) Reaction was initiated by adding NADPH-generating compounds and after stopping of reaction and samples treatment; HPLC-UV/VIS and HPLC-MS/MS detection were used for detection of peak areas corresponding to the metabolite of each substrate.
# conscious rats = test: Respiration in the unrestrained conscious rat (whole body plethysmography, GLP); conditions: 2, 9 and 36 mg/kg, single oral
# Method: The day prior to the study, animals were only allowed to drink water. On the study day, animals were placed in the plethysmograph and measurements started immediately afterwards. The whole body plethysmography method measure in a closed chamber variations in air flow due to thoracic cage movements during respiration and enables the measurement of respiratory parameters in the conscious animal, totally free to move about. […] Respiration was recorded for a total period of 6 hours following the dosing. Respiratory parameters were determined from analysis of respiratory cycles.
# [1] = Pharmacokinetics in plasma of dogs (LC/MS-MS); format: in vivo; conditions: for T1/2: manual linear regression on the last three points
# [2] = tested on: THC-induced object recognition impairment; test: THC-induced impairment of long-term memory (object recognition test); conditions: per os 3 h before THC 6 mg/kg ip; mice
# Description: Ten minutes before THC injection, mice were allowed to explore 2 identical objects in an “L”-shaped maze. The day after, one object was replaced by a novel one. […] The comparison of the time spent exploring the familiar and the novel objects is used as an index of discrimination between familiarity and novelty. Therefore, this parameter is used to evaluate object recognition performances.
# [3] = tested on: diet-induced obese (DIO) mouse model; test: Repeated treatment: food intake and body weight in diet-induced obese (DIO) mice; format: in vivo; conditions: vs vehicle; Rimo 10 mg/kg ip; 3pMBP 0.005-15 mg/kg per os
# in vitro = in vitro ADME, monkeys; conditions: monkey
# UGT1A1 = UGT1A1 (Homo sapiens, UniProt P22309); test: UGT1A1 inhibition (recombinant, scopoletin substrate) assay; format: in vitro ADME; conditions: 10 μM
# Method: The reaction is initiated by adding the co-factor uridine-diphosphoglucuronic acid (UDPGA), the incubation is continued for 60 minutes and relative fluorescence intensity (RFI) is measured on a fluorescent plate reader.
# [4] = tested on: THC-induced conditioned gaping; test: THC-induced conditioned gaping behavior; format: in vivo; conditions: rats
# Method: Three days after cannulation surgery, rats were adapted to the taste reactivity chamber. Rats were individually placed in a Taste Reaction (TR) chamber with their cannulas attached to an infusion pump to infuse water into their intraoral cavity over a period of 2 min at the rate of 1 ml/min and then returned to their home cage. Rats received the first of three daily conditioning trials three days after the adaptation trial. […] Rats received the pre-treatment drug 3 hours prior to conditioning via feeding tube. They were then placed in the TR chamber and infused with 0.1% saccharin solution for 2 min at a rate of 1 ml/min while orofacial reactions were recorded. Immediately following saccharin infusion, the rats were injected […] with 10 mg/kg THC or VEH and returned to their home cage. Twenty-four hour later, the rats underwent a drug free test trial where they were placed in the TR chamber and infused with 0.1% saccharin solution for 2 min at a rate of 1 ml/min and orofacial reactions were recorded.
# P-gp = P-gp (Homo sapiens, UniProt P08183); test: Cellular transporter inhibition, MDR1-MDCKII cells (fluorometry); conditions: 10 μM
# Method: (§2) Chinese Hamster Ovary (CHO) were used for all transporters except for P-gp that was studied in Madin-Darby Canine Kidney (MDR1-MDCKII) cells. The inhibition of the activity of each transporter is evaluated by measuring changes in the transport of their specific substrates by fluorometry.
# [5] = Distribution in the brain of rats; format: in vivo; conditions: rat, oral, 1.6 mg/kg, per os
# Method: Distribution of 3pMBP in the brain was studied in mice and rats. In dogs, 3pMBP was also administered intravenously after solubilisation in cyclodextrine.
# OATP1B1 = OATP1B1 (Homo sapiens, UniProt Q9Y6L6); test: Cellular transporter inhibition, CHO cells (fluorometry); conditions: 10 μM
# Method: as §2
# [6] = tested on: THC-induced increase in food intake; test: THC-induced increase in food intake (fasting-refeeding model); format: in vivo; conditions: mice
# Method: The effects of THC on food intake were studied using the fasting-refeeding model (Bellochio et al., 2010) in CB1^f/f male mice. […] Food intake was measured for one hour. Independent groups of animals (at least n=8 per group) were used for each treatment condition.
# CYP 2B6 = CYP 2B6 (Homo sapiens, UniProt P20813); test: CYP inhibition in human liver microsomes; conditions: 10 μM
# Description: as §1
# [7] = Distribution in the brain of mice; format: in vivo
# [8] = 3 h prior to conditioning with THC 10 mg/kg
# [9] = per os 3 h before THC 1 mg/kg ip
# Sequence of P-gp (P08183 whole entry): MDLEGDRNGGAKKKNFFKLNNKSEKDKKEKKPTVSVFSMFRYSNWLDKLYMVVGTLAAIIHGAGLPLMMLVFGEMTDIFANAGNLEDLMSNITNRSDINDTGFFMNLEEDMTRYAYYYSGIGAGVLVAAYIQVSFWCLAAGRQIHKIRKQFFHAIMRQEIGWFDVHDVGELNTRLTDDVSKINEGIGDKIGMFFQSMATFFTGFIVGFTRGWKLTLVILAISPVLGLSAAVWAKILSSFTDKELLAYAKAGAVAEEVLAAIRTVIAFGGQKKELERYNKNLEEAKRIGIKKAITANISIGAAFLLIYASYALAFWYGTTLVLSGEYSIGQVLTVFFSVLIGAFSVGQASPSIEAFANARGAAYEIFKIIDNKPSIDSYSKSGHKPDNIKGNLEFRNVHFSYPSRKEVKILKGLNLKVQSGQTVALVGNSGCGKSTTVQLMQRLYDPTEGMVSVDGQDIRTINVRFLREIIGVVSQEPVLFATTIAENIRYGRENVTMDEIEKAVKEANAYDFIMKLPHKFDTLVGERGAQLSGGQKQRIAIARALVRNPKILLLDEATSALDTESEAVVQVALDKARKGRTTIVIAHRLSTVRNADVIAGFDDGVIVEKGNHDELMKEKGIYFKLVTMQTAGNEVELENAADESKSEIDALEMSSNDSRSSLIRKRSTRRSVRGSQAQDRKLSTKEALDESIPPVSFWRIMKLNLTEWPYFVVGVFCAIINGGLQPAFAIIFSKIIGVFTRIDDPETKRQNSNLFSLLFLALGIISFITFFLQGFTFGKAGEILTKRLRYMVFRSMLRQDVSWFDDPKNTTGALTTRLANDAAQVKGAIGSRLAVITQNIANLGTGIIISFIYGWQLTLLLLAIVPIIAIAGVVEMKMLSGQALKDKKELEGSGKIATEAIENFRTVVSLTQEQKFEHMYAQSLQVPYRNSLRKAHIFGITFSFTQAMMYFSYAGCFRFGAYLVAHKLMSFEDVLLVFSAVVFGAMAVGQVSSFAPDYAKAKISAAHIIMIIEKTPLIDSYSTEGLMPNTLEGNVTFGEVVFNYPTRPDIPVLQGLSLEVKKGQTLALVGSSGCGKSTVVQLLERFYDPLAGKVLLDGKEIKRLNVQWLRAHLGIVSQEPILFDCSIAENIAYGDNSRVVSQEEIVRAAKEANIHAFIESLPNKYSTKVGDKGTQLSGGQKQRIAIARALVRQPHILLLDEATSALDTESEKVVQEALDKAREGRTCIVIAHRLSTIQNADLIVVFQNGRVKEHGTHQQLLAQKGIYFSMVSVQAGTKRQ
# Sequence of UGT1A1 (P22309 26-533): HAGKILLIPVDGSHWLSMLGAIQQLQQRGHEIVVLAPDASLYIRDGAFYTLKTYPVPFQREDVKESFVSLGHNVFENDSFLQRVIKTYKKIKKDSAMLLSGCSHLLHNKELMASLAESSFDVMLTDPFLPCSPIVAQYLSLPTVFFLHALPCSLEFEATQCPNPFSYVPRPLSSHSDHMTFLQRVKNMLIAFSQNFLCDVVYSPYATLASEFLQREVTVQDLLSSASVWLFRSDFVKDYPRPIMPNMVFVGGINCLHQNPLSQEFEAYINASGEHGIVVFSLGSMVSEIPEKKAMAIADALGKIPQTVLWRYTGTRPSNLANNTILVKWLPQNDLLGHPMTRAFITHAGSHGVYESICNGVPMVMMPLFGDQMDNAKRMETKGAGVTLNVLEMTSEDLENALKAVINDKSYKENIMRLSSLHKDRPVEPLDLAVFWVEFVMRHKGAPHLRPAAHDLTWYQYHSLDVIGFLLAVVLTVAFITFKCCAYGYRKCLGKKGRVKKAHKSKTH
# Sequence of CYP 2B6 (P20813 whole entry): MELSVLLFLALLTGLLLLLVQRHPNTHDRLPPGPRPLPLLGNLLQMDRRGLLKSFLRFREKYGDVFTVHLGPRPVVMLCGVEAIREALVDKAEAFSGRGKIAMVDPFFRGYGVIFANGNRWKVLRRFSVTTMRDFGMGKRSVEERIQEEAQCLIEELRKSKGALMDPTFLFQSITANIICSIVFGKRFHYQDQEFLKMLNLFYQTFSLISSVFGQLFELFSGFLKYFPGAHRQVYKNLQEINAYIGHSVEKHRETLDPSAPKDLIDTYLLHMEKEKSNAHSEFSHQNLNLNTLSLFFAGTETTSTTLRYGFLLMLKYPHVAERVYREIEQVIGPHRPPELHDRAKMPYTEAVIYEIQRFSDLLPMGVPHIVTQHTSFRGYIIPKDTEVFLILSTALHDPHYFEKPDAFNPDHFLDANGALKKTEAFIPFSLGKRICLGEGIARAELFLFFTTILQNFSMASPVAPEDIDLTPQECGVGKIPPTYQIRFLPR
# Sequence of OATP1B1 (Q9Y6L6 whole entry): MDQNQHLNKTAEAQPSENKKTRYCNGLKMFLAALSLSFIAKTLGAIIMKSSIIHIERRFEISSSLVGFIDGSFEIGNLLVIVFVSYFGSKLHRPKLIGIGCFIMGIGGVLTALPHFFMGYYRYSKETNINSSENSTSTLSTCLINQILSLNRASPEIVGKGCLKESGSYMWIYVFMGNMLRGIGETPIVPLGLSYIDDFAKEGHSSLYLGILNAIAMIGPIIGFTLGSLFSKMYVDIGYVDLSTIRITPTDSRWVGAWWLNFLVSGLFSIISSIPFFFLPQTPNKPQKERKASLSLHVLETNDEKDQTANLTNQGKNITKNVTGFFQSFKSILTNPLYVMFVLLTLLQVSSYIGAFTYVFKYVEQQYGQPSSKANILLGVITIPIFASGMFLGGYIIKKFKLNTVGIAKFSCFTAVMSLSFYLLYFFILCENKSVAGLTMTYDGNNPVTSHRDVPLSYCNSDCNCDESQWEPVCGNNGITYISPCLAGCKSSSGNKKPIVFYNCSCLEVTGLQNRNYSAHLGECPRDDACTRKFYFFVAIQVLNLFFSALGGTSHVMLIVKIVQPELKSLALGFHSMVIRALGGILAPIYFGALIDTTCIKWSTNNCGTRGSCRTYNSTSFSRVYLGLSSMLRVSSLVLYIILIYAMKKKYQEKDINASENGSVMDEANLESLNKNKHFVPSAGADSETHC
# Sequence of CYP 2C9 (P11712 whole entry): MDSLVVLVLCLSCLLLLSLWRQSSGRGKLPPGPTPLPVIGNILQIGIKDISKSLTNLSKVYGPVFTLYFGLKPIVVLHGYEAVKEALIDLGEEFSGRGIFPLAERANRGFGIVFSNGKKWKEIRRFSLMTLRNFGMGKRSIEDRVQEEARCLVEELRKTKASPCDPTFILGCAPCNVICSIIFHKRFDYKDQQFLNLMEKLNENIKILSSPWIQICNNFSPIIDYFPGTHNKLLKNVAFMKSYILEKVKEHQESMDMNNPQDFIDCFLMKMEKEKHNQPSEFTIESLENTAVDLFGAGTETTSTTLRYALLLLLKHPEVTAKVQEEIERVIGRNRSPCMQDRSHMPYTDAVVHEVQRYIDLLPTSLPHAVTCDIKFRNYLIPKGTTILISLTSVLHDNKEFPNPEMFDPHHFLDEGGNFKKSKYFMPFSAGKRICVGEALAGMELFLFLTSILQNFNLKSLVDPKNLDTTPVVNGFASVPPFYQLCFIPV
structure (smiles),measurement,setting,value
"COc1ccc(CO[C@H]2CC[C@@]3(C)C(=CC[C@H]4[C@@H]5CC[C@H](C(C)=O)[C@@]5(C)CC[C@@H]43)C2)cc1 [3pMBP, 3β-(4-methoxybenzyloxy)pregn-5-en-20-one]",Inhibition of CYP 2C9 activity,CYP 2C9,no significant inhibition
same,Respiration,conscious rats,did not modify
same,bioavailability,[1],68%
same,bioavailability,"[1]; both sexes, dog, plasma, oral, 0.7 mg/kg, read-out: bioavailability",~68%
same,Tmax,"[1]; both sexes, dog, po, per os, 0.7 mg/kg, plasma, read-out: Tmax",~3 h
same,AUClast,"[1]; iv, 0.7 mg/kg, plasma",2192 ng·h/mL
same,Cmax,"[1]; iv, 0.7 mg/kg, plasma",505 ng/mL
same,Tmax,"[1]; iv, 0.7 mg/kg, plasma",0.125 h
same,T1/2,"[1]; iv, 0.7 mg/kg, plasma",35.9 h
same,AUClast,"[1]; per os, 0.7 mg/kg, plasma",1452.5 ng·h/mL
same,Cmax,"[1]; per os, 0.7 mg/kg, plasma",137.7 ng/mL
same,Tmax,"[1]; per os, 0.7 mg/kg, plasma",2.67 h
same,T1/2,"[1]; per os, 0.7 mg/kg, plasma",28.0 h
same,% inhibition,[2],100%
same,ID50,[2],<0.005 mg/kg
same,Body weight in obese mice,[3],"but not 3pMBP (0.005, 0.015, 0.05, 5 and 15 mg/kg; per os), decreases body weight"
same,fraction unbound,in vitro,0.01 to 0.03
same,Activity of UGT1A1,UGT1A1,did not modify the activity
same,Establishment of conditioned gaping (mean number of gaping reactions),"[4]; 0.005 and […], THC 10 mg/kg",interfered the establishment of conditioned gaping by reducing the mean number of gaping reactions
same,% inhibition,[4]; [8],50%
same,ID50,[4]; [8],<0.005 mg/kg
same,Activity of P-gp,P-gp,did not modify the activity
same,Tmax,[5],7 h
same,Activity of OATP1B1,OATP1B1,did not modify the activity
same,% inhibition,[6]; [9],100%
same,ID50,[6]; [9],0.015 mg/kg
same,ID100,[6]; [9],0.05 mg/kg
same,ID50,"[6]; per os, THC 1 mg/kg",≈ 15 μg/kg
same,ID100,"[6]; per os, THC 1 mg/kg",≈ 50 μg/kg
same,Inhibition of CYP 2B6 activity,CYP 2B6,no significant inhibition
same,AUC in the brain vs plasma,"[7]; conclusion sentence, species and dose not stated",four times higher AUC in the brain than in the plasma
same,tmax in the brain,"[7]; mice, per os",7 h
